Measurements published in PMC11242640 (International Journal of Molecular Sciences, 2024).
Read-outs that look alike come from different tables or passages of the source.

Tests used:
[1] = DPPH radical scavenging activity; settings: for IC50: 30 min, 25 °C, dash = IC50 value not achieved; for DPPH Inhibition (%): at maximal concentration tested
From the text: DPPH is the most commonly used method to determine the antioxidant activity of different potential antioxidants. DPPH is a stable organic radical capable of accepting an electron or a hydrogen radical and changing into a non-radical form, DPPH-H [50]. The percentage of radical quenching is used as a measure of the compound antioxidant capacity.
DPPH radical scavenging activity. The stable radical 1,1-diphenyl-2-picrylhydrazyl (DPPH, Sigma–Aldrich, St. Louis, MO, USA) is the reagent used in this spectrophotometric test. The DPPH ethanolic solution (c = 8⋅10^−4 mol/L) was prepared daily and stored in a dark flask at 4 °C between the measurements. […] The reaction mixture was vortexed and incubated in the dark for 30 min at 25 °C. […] Antioxidant substances reduce the DPPH radical and decrease its absorbance at this wavelength. The DPPH inhibition, reported as a percentage, was obtained according to the equation: Inhibition (%) = [(AC(0) − AA(t))/AC(0)] × 100, where AC(0) is the absorbance of the control at t = 0 min and AA(t) is the absorbance of the antioxidant at t = 30 min. Each of the measurements was conducted three times. Inhibition percentages were expressed as mean values ± standard deviation. IC50 values were calculated using a nonlinear fit of compound concentration values versus the inhibition percentage.

eqBChE = biological target: T1, eqBChE (Equus caballus, UniProt P81908); assay: eqBChE inhibition, modified Ellman's method; assay type: biochemical; settings: for inhibition of BChE: concentration not given
T1 construct: eqBChE (from equine serum); purchased Sigma–Aldrich (St. Louis, MO, USA); host or cells: equine serum
Procedure: (§1) Enzymes were prepared in 20 mM Tris buffer pH 7.5 and DTNB, ATChI, and BTChI in 50 mM Tris buffer pH 8.0. Cholinesterase activity was evaluated using a 96-well microplate reader (Bio Tek 800TSUV Absorbance Reader, Agilent, Santa Clara, CA, USA) at room temperature. The microplate well was filled with 180 μL of Tris buffer (50 mM, pH 8.0), 10 μL of tested solutions (final concentrations in a range of 20–1000 μM), 10 μL of an enzyme (final concentration 0.04 U/mL), 10 μL of DTNB (final concentration 0.3 mM), and […] of ATChI/BTChI (final concentration of 0.5 mM). […] Without the use of inhibitors and enzymes, non-enzymatic hydrolysis was evaluated as a blank for the control measurement. The non-enzymatic hydrolysis reaction with an added inhibitor was used as a blank for the samples. The same volume of buffer was substituted for the enzyme. All experiments were run in triplicate. The following formula was applied to calculate the inhibition percentage: Inhibition (%) = [(AC − AT)/AC] × 100, where AC is the activity of the enzyme without a test sample and AT is the activity of the enzyme with a test sample. […] The inhibitory activity of ethanol was subtracted from all the samples. The IC50 values were obtained by a nonlinear fit of compound concentration values versus the response.

eeAChE = eeAChE (Electrophorus electricus, UniProt O42275); assay: eeAChE inhibition, modified Ellman's method; assay type: biochemical
Procedure: as §1

[2] = CUPRAC reducing antioxidant capacity assay; settings: Trolox equivalent, pH 7.0
From the text: The CUPRAC test is based on the reduction of Cu^2+ to Cu^+ due to the action of antioxidants. A reaction occurs at a pH 7.0 (close to physiological pH) in the presence of neocuproin. The reactive Ar-OH groups of polyphenols and other antioxidants are oxidized to the corresponding quinones, and Cu^2+-neocuproin is reduced to the colored complex Cu^+-neocuproin [51].
CUPRAC-reducing-antioxidant-capacity assay. […] Ammonium acetate, neocuproine, copper(II) chloride, and standard Trolox were purchased from Sigma–Aldrich (St. Louis, MO, USA). The reaction mixture contained 1 mL of each of these solutions: NH4Ac buffer (1 M, pH 7.0), Cu(II) chloride (10 mM), and neocuproine (7.5 mM, dissolved in ethanol). To make a final volume of 4.1 mL, x mL of the testing sample (or standard Trolox) and (1,1-x) mL of H2O were added to an initial mixture. The tubes were vortexed and left for 30 min at room temperature. As a blank test, the same mixture was used only without the test sample. Absorbance was recorded at 450 nm (UV-1800 UV/Vis spectrophotometer, Shimadzu, Kyoto, Japan).

[3] = read-out: eqBChE Inhibition (%)
[4] = read-out: eeAChE Inhibition (%)

T1 sequence (P81908 whole entry): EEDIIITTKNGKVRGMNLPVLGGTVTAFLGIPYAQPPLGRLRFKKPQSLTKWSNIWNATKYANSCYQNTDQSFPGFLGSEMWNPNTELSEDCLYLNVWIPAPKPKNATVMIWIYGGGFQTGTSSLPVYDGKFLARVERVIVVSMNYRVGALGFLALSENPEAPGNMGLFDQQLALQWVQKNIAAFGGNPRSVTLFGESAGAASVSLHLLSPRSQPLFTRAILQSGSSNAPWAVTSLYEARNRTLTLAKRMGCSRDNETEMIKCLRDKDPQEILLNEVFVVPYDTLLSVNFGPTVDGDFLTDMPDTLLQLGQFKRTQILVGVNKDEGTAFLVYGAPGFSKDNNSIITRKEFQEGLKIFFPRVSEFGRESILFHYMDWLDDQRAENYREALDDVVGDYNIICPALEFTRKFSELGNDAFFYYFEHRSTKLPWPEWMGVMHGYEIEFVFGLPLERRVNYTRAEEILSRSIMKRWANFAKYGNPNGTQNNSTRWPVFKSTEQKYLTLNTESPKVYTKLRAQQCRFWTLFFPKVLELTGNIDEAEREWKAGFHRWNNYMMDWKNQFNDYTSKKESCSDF
Sequence of eeAChE (O42275 24-633): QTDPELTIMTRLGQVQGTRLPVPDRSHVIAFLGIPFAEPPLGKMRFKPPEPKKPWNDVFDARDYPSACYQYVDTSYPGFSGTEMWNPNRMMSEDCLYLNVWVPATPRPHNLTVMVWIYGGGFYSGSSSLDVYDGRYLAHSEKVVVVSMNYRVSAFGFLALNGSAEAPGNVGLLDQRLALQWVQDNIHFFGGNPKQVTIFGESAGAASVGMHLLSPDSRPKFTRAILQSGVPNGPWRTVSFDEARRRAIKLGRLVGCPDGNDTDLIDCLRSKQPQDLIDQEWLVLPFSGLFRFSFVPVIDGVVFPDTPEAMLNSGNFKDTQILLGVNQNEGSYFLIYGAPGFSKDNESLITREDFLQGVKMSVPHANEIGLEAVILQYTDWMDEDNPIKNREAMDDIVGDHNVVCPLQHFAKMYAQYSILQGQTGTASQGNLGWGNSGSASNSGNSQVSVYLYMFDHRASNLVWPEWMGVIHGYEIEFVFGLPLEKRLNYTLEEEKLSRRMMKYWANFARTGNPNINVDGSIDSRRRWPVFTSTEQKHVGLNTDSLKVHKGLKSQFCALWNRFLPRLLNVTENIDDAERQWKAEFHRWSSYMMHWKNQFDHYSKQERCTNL

SMILES	IC50 [1] [µM]	DPPH Inhibition (%) ([1]; 500 μM)	IC50 (eqBChE; dash = IC50 value not achieved) [µM]	IC50 (eeAChE; dash = IC50 value not achieved) [µM]	inhibition at 500 µM (eeAChE; [4]) [%]	CUPRAC [2]	inhibition at 500 µM (eqBChE; [3]) [%]	other results
Oc1ccc(F)cc1/C=C/c1cccs1 [Compound 1, (E)-4-fluoro-2-(2-(thiophen-2-yl)vinyl)phenol]	159	77.2 ± 0.5 (500) %	66	178	80.9 ± 1.9	0.925 mol TE/mol of Compound		inhibition at 400 µM (eqBChE; [3]): 83.5 ± 0.8%
Cc1cnc(/C=C\c2cc(Cl)ccc2O)s1 [Compound 10, (Z)-4-chloro-2-(2-(5-methylthiazol-2-yl)vinyl)phenol]	> 250	24.0 ± 0.7 (500) %	> 250	> 100	34.2 ± 2.1	0.630 mol TE/mol of Compound	22.4 ± 9	
COc1ccc(O)c(/C=C/c2cccs2)c1 [Compound 3, (E)-4-methoxy-2-(2-(thiophen-2-yl)vinyl)phenol]	36.2	87.7 ± 0.8 (500) %	206	405	77.8 ± 5.2	1.111 mol TE/mol of Compound	68.5 ± 6.2	
Cc1cnc(/C=C/c2ccc(O)cc2)s1 [Compound 12, (E)-4-(2-(5-methylthiazol-2-yl)vinyl)phenol]	140		189	> 100	9.1 ± 1.4		68.4 ± 1.3	DPPH Inhibition (%) ([1]; 524 μM): 74.1 ± 0.4 (524) %
Cc1ccc(/C=C/c2cc(Cl)ccc2O)s1 [Compound 6, (E)-4-chloro-2-(2-(5-methylthiophen-2-yl)vinyl)phenol]	> 250					1.407 mol TE/mol of Compound		DPPH Inhibition (%) ([1]; 400 μM): 42.9 ± 2.7 (400) %; IC50 (eqBChE): 39.7 µM; inhibition at 100 µM (eqBChE; [3]): 84 ± 1.8%; IC50 (eeAChE): 27.1 µM; inhibition at 80 µM (eeAChE; [4]): 82.4 ± 0.8%
Cc1ccc(O)c(/C=C/c2cccs2)c1 [Compound 4, (E)-4-methyl-2-(2-(thiophen-2-yl)vinyl)phenol]	51.4		36.5	225		0.852 mol TE/mol of Compound		DPPH Inhibition (%) ([1]; 400 μM): 90.3 ± 0.6 (400) %; inhibition at 250 µM (eqBChE; [3]): 81.1 ± 2.2%; inhibition at 250 µM (eeAChE; [4]): 82.1 ± 1.1%
Cc1cnc(/C=C/c2cccc(O)c2)s1 [Compound 14, (E)-3-(2-(5-methylthiazol-2-yl)vinyl)phenol]	> 250		> 250	> 100				DPPH Inhibition (%) ([1]; 250 μM): 11.2 ± 2.7 (250) %; inhibition of BChE (eqBChE): < 50%; inhibition at 250 µM (eqBChE; [3]): 15.6 ± 3.6%; inhibition at 250 µM (eeAChE; [4]): 10.7 ± 2.4%
Oc1ccc(Cl)cc1/C=C/c1cccs1 [Compound 2, (E)-4-chloro-2-(2-(thiophen-2-yl)vinyl)phenol]	265	65.0 ± 2.4 (500) %	53	82.3		0.713 mol TE/mol of Compound		inhibition at 200 µM (eqBChE; [3]): 80.4 ± 6.4%; inhibition at 250 µM (eeAChE; [4]): 83 ± 2.5%
Cc1ccc(O)c(/C=C/c2ccc(C)s2)c1 [Compound 8, (E)-4-methyl-2-(2-(5-methylthiophen-2-yl)vinyl)phenol]	26.3					1.148 mol TE/mol of Compound		DPPH Inhibition (%) ([1]; 250 μM): 89.3 ± 1.2 (250) %; IC50 (eqBChE): 24.8 µM; inhibition at 250 µM (eqBChE; [3]): 88.5 ± 5%; IC50 (eeAChE): 92.4 µM; inhibition at 150 µM (eeAChE; [4]): 78.2 ± 7.7%
Cc1ccc(/C=C/c2cc(F)ccc2O)s1 [Compound 5, (E)-4-fluoro-2-(2-(5-methylthiophen-2-yl)vinyl)phenol]	130		22.9	155		0.204 mol TE/mol of Compound		DPPH Inhibition (%) ([1]; 400 μM): 83.0 ± 1.9 (400) %; inhibition at 100 µM (eqBChE; [3]): 75.3 ± 2.3%; inhibition at 250 µM (eeAChE; [4]): 84.6 ± 2.7%
Cc1cnc(/C=C\c2cc(F)ccc2O)s1 [Compound 9, (Z)-4-fluoro-2-(2-(5-methylthiazol-2-yl)vinyl)phenol]	428	55.4 ± 0.7 (500) %	> 250	> 100		1.000 mol TE/mol of Compound		inhibition at 250 µM (eqBChE; [3]): 10.5 ± 4.1%; inhibition at 100 µM (eeAChE; [4]): 17.6 ± 3.1%
COc1ccc(O)c(/C=C/c2ccc(C)s2)c1 [Compound 7, (E)-4-methoxy-2-(2-(5-methylthiophen-2-yl)vinyl)phenol]	23.8					2.350 mol TE/mol of Compound		DPPH Inhibition (%) ([1]; 50 μM): 86.2 ± 2.3 (50) %; IC50 (eqBChE): 42.5 µM; inhibition at 200 µM (eqBChE; [3]): 83.1 ± 0.8%; IC50 (eeAChE): 62.9 µM; inhibition at 200 µM (eeAChE; [4]): 81.1 ± 1.1%
Cc1cnc(/C=C/c2ccccc2O)s1 [Compound 13, (E)-2-(2-(5-methylthiazol-2-yl)vinyl)phenol]	699		30.7	> 100	17.1 ± 3.9		78.2 ± 3.8	DPPH Inhibition (%) ([1]; 1047 μM): 59.8 ± 2.3 (1047) %
COc1ccc(/C=C/c2ncc(C)s2)c(O)c1 [Compound 11, (E)-5-methoxy-2-(2-(5-methylthiazol-2-yl)vinyl)phenol]	30.1		> 250	> 100	29.3 ± 1.8		9.8 ± 2.7	DPPH Inhibition (%) ([1]; 524 μM): 89.8 ± 0.0 (524) %; inhibition of BChE (eqBChE): < 50%
